# Several values for one entry are separate records, joined by “and”; a condition that tells them apart may be missing. Identical values can stand only once.
# How the values were obtained:
# C2C12 murine myotubes = assay: Dex-induced C2C12 myotube atrophy: myotube diameter, fusion and differentiation indexes; assay type: cell-based, mouse; conditions: 10 μM Dex 24 h, 12.5 μM BML-260
# Protocol: (§1) C2C12 murine skeletal muscle myoblasts were purchased from Koram Biotech Corp. (Seoul, Republic of Korea). Prior to experiments, mycoplasma contamination was eliminated using the MycoXpert Mycoplasma Removal Reagent (MYX-B, CAPRICORN) following the manufacturer’s protocol. To ensure complete removal, all cells were passaged three times after treatment before being used in subsequent experiments. No STR profiling was recently undertaken. Myoblasts were cultured in growth media (GM), containing Dulbecco’s modified Eagle’s medium (DMEM), 10% fetal bovine serum, and 1% penicillin and streptomycin (PenStrep). C2C12 myoblasts were differentiated into myotubes at more than 80% confluence by culture in differentiation media (DM), containing DMEM supplemented with 2% horse serum and PenStrep, for 96 h. To induce atrophy, the myotubes were treated with DM plus 10 μM Dex for 24 h. BML-260 and SP600125 were purchased from Santa Cruz Biotechnology, TX, USA (cat. no. sc-223822 and sc-200635).
# Fast myosin heavy chain 2 (MYH2) immunocytochemistry was used to visualize murine myotubes and measure myotube diameter, following the previously published protocol (Chen et al, [2016]). After mounting, fluorescence images were captured in 5 different regions using a DMI 3000 B microscope (Leica, Germany), and analyzed using the NIH imaging software Image J 64. 100 myotubes containing at least three nuclei were measured in each experimental group. Myotubes were primarily examined in the central area of each well, as opposed to randomly selected fields. The mid-point of the myotube was used to measure the diameter. For nuclear counts, we chose myotubes containing three or more nuclei. The observer was aware of the treatment conditions.
# To assess myoblast fusion into multinucleate myotubes, nuclei number within fast myosin (MYH2)-positive cells were measured using the NIH imaging software Image J 64. The differentiation index was calculated as the percentage of nuclei in fast myosin (MYH2)-positive cells (nuclei in myotubes/total nuclei). Myotubes were classified as MYH-positive cells containing at least 4 nuclei. Myotubes were measured in groups of at least 100, with at least 7500 nuclei measured in each group.
# (§2) Gene knockdown was carried out following the manufacturer’s protocol using a 6-well culture plate format (Thermo Fischer Scientific, Waltham, USA). Lipofectamine 3000 was used for the transfection step (Thermo Fischer Scientific, Waltham, USA). siRNA transfection was performed on day 3 of myoblast differentiation into myotubes. C2C12 myotubes and primary human myotubes were transfected with 75 pmol siRNA duplex. Details of the siRNAs used in this study are shown in Appendix Table S3.
# C2C12 myotubes = assay: Real-time qPCR of gene expression in C2C12 myotubes; assay type: cell-based, mouse; conditions: for atrogin-1 and MuRF-1 expression, qPCR: 10 μM Dex 24 h, 12.5 μM BML-260; for DUSP22 expression, qPCR, Average / MURF-1 expression, qPCR, Average / atrogin-1 (ATRO) expression, qPCR, Average: Vehicle average = 1, n = 5; for DUSP22 expression, qPCR / MURF-1 expression, qPCR / atrogin-1 (ATRO) expression, qPCR: Vehicle average = 1, replicates
# Protocol: as §1
# The StepOnePlus Real Time PCR System (Applied Biosystems, UK) was used to measure the mRNA level of the genes of interest. An AccuPower RT PreMix (Bioneer, Republic of Korea) was used to synthesize the cDNA from total RNA. The real-time PCR (qPCR) was carried out according to the manufacturer’s instructions, and the previously published protocol (Lee et al, [2020]). Details of the primers used in this study are shown in Appendix Tables S1 and S2.
# as §2
# C57BL/6J mice = assay: Dex treatment mouse model of skeletal muscle atrophy, BML-260 treatment; assay type: in vivo; conditions: for mean body weight: 15 mg/kg Dex, 5 mg/kg BML-260, IP daily
# Protocol: The Dex model of muscle atrophy was based on the previously published protocol (Kim et al, [2022]). In brief, 12-week-old male C57BL/6J mice were treated as follows: 1) Vehicle (DMSO in PBS pH 7.4 with 5% Tween 80) alone, 2) 15 mg/kg Dex dissolved in vehicle, 3) 15 mg/kg Dex and 5 mg/kg BML-260 (n = 5 per group). Mice were treated daily by intraperitoneal (IP) injection for 14 d and then assessed for muscle condition. The 5 mg/kg in vivo dose was selected based on a previous study that carried out bilateral injection of BML-260 into the fat pads of male 8-week-old C57BL/6J mice (Feng et al, [2019]).
# Grip strength was measured using the BIO-GS3 device (Bioseb, FL, USA). Mice were placed onto the grid with all four paws attached and gently pulled backwards to measure the grip strength until the grid was released. The maximum grip value, used to represent muscle force, was calculated using 3 trials with an interval of 30 s.
# Muscle fatigue was measured the previously described protocol (Chiu et al, [2018]), with two different models using the Rotarod. One was the constant model and the other was the accelerating model that is inherent in the rotarod device. In brief, the mice were accommodated to training before the commencement of the fatigue task using an accelerating rotarod (Ugo Basile, Italy). The mice were trained at a constant speed of 13 rpm for 15 min. After a recovery period of 15 min, the mice were placed on the rotarod adjusted to accelerate from 13 to 25 rpm in 3 min for 15 min. 24 h later, the muscle fatigue test was carried out with speeds ramping from 13 to 25 rpm in 3 min, and maintained at 25 rpm for a 30 min interval. Latency to fall off the rotarod was measured for each mouse. A fatigued mouse was classified as falling off 4 times within a 1 min period, which also terminated the test.
# Mice were anesthetized using ketamine (22 mg/kg; Yuhan, Republic of Korea) and xylazine (10 mg/kg; Bayer, Republic of Korea) in saline by IP injection. The quadriceps, gastrocnemius, soleus and TA muscles were then dissected and weighed. For histological analysis, the muscles were fixed by overnight incubation with 4% paraformaldehyde in PBS pH 7.4 at 4 °C. Paraffin sectioning and H&E staining were provided by the Animal Housing Facility, Gwangju Institute of Science and Technology, Republic of Korea (5 µm muscle sections using a Thermo Scientific HistoStar (Thermofisher). H&E staining was carried out with a kit (Merck, Germany)). For immunohistochemistry, TA muscle sections were permeabilized for 15 min (PBS with 0.5% Triton X-100), blocked for 1 h (5% BSA) and incubated with the primary antibody overnight at 4 °C (a list of primary and secondary antibodies used in this study are provided in Appendix Tables S4 and S5, respectively). After washing with PBS 3 times for 5 min, the sections were incubated with the secondary antibody at RT for 1 h. The nuclei were counterstained with DAPI in ProLong™ Gold Antifade Mountant (Invitrogen, P36935). Digital images were acquired with Leica DM 2500 (Leica Microsystems). Cross sectional area (CSA) and fiber size distribution was measured using the NIH imaging software Image J 64. To CSA and size distribution of different fiber types was calculated in 4 muscle section as follows: type 2 A: 30–40 fibers measured; type 2B: at least 100 fibers measured; type 2X: 30–40 fibers measured.
# DUSP22 = system: DUSP22; set-up: method as in Cutshall et al, 2005; conditions: ref Cutshall et al, 2005, cited from earlier work
# [1] = dexamethasone-treated C2C12 myotubes
# [2] = dexamethasone-treated C2C12 myotubes, listed as BML
# [3] = 15 mg/kg Dex and 5 mg/kg BML-260, IP daily 14 d
# [4] = C2C12 myotubes treated with Dex
compound,measurement,setting,value
O=C(O)c1ccc(N2C(=O)C(=Cc3ccccc3)SC2=S)cc1 (stereo in doubt) [BML-260],myotube atrophy (myotube diameter),C2C12 murine myotubes,prevented myotube atrophy
same,myotube fusion and differentiation indexes,C2C12 murine myotubes,recovered
same,proportion of larger-sized myotubes,C2C12 murine myotubes,maintained the proportion of larger-sized myotubes
same,"atrogin-1 and MuRF-1 expression, qPCR",C2C12 myotubes,downregulated
same,additional effect on Dex-induced atrogene expression in the presence of DUSP22 gene knockdown,C2C12 myotubes; Dex-treated C2C12 myotubes,no significant additional effect
same,"DUSP22 expression, qPCR, Average",C2C12 myotubes; [1],1.419
same,"MURF-1 expression, qPCR, Average",C2C12 myotubes; [1],2.125
same,"atrogin-1 (ATRO) expression, qPCR, Average",C2C12 myotubes; [1],2.99
same,"DUSP22 expression, qPCR",C2C12 myotubes; [2],1.3832 and 1.906 and 1.483 and 1.176 and 1.145
same,"MURF-1 expression, qPCR",C2C12 myotubes; [2],2.278 and 2.851 and 2.228 and 1.487 and 1.782
same,"atrogin-1 (ATRO) expression, qPCR",C2C12 myotubes; [2],3.37 and 3.403 and 3.232 and 2.06 and 2.886
same,TA muscle mass,C57BL/6J mice; [3],increased
same,grip strength,C57BL/6J mice; [3],"increased the mean grip strength value, but it did not achieve statistical significance"
same,myofiber area distribution,C57BL/6J mice; [3],shifted the myofiber area distribution towards larger sized fibers
same,"rotarod muscle performance, acceleration and constant models",C57BL/6J mice; [3],significantly recovered muscle performance
same,"upregulation of atrogin-1, MuRF-1 and DUSP22 in TA muscle, western blot",C57BL/6J mice; [3],inhibited
same,myofiber CSA,"C57BL/6J mice; 15 mg/kg Dex and 5 mg/kg BML-260, IP daily 14 d, TA muscle per text",significantly increased
same,mean body weight,C57BL/6J mice,recovered
same,IC50,DUSP22; EGF-R peptide P32-based assay,18 µM
same,IC50 for DUSP22 (in words),DUSP22,low micromolar range
same,mode of DUSP22 inhibition,DUSP22,competitive inhibitor
"C[C@@H]1C[C@H]2[C@@H]3CCC4=CC(=O)C=C[C@]4(C)[C@@]3(F)[C@@H](O)C[C@]2(C)[C@@]1(O)C(=O)CO [Dex, dexamethasone]",myotube atrophy (myotube diameter),C2C12 murine myotubes,underwent atrophy
same,"atrogin-1 and MuRF-1 expression, qPCR",C2C12 myotubes,upregulated
same,"DUSP22 expression in myotubes undergoing Dex-induced atrophy, RNA Seq and qPCR",C2C12 myotubes; C2C12 myotubes,upregulated
same,"DUSP22 expression, qPCR, Average",C2C12 myotubes; [4],1.867
same,"DUSP22 expression, qPCR",C2C12 myotubes; [4],1.751 and 1.762 and 2.076 and 2.045 and 1.699
same,"DUSP22 expression, qPCR, Average",C2C12 myotubes; [1],1.628
same,"MURF-1 expression, qPCR, Average",C2C12 myotubes; [1],2.64
same,"atrogin-1 (ATRO) expression, qPCR, Average",C2C12 myotubes; [1],4.291
same,"DUSP22 expression, qPCR",C2C12 myotubes; [1],2.068 and 1.836 and 1.276 and 1.511 and 1.449
same,"MURF-1 expression, qPCR",C2C12 myotubes; [1],3.398 and 2.859 and 1.96 and 2.287 and 2.697
same,"atrogin-1 (ATRO) expression, qPCR",C2C12 myotubes; [1],4.546 and 3.961 and 4.048 and 4.199 and 4.699
same,mean body weight,C57BL/6J mice,significantly reduced
same,"DUSP22 expression, qPCR","C57BL/6J mice; TA muscle of C57BL/6 mice treated with Dex, Vehicle average = 1, individual animals",2.47 and 1.789 and 1.328 and 1.032

# — publication PMC12162873, “Modulating phosphatase DUSP22 with BML-260 ameliorates skeletal muscle wasting via Akt independent JNK-FOXO3a repression” (EMBO Molecular Medicine, 2025)
